The values that follow come from US7282494B2, “Heteroaryl diazacycloalkanes, their preparation and use” (Neurosearch A/S, priority 1909, dated 2007).

Series [1] concerns the target nAChR formed by the α7 subunit isoform (Rattus norvegicus, UniProt Q05941). Kind of series: In vitro inhibition of 3H-α-bungarotoxine binding rat brain (Assay III).
Series [2] addresses T1, neuronal nicotinic receptors (3H-epibatidine binding sites; high affinity site α4β2 subtype) (Rattus norvegicus, UniProt P09483+P12390). The series can be described thus: biochemical.
For series [3], the target named is T1, neuronal nicotinic receptors (3H-epibatidine binding sites; high affinity site α4β2 subtype).
Where [4] appears, read: 3H-α-bungarotoxine 2 nM, cerebral cortices from male Wistar rats, 2 h at 37° C., read-out: Assay III IC50.

Structures can show the parent of a compound that is named as a salt. Where two headings read alike, the source gives them in different places.

T1 sequence (P09483 31-630): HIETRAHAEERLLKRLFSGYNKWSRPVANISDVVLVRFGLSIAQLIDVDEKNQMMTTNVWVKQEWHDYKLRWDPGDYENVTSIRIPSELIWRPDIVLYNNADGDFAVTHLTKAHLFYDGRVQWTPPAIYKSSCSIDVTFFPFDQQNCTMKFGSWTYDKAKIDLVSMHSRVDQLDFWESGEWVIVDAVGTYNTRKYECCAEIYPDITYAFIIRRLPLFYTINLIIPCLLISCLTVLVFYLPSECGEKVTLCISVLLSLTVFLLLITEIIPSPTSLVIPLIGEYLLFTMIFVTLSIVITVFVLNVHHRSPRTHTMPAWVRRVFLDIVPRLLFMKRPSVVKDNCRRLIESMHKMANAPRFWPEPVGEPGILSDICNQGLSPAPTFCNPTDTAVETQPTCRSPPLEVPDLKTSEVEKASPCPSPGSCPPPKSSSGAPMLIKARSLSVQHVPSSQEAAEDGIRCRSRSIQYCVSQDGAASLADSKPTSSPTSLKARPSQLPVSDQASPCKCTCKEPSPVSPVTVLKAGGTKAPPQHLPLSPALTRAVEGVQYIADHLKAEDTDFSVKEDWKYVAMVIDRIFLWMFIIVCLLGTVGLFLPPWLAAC
T1 sequence (P12390 25-500): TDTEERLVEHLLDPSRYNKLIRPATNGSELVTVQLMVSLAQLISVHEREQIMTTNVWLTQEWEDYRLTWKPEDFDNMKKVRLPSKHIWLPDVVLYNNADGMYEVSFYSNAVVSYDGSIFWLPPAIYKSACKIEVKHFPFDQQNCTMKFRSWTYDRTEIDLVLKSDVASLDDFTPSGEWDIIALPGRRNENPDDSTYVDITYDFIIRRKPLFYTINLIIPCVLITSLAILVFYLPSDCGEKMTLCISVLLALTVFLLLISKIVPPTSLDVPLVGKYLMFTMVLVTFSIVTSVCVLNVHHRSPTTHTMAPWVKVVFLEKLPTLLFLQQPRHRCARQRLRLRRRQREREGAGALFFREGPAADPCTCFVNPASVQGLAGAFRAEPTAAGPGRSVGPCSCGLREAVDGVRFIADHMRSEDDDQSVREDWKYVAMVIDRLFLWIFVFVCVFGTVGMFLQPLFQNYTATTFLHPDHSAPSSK
Sequence of nAChR formed by the α7 subunit isoform (Q05941 23-502): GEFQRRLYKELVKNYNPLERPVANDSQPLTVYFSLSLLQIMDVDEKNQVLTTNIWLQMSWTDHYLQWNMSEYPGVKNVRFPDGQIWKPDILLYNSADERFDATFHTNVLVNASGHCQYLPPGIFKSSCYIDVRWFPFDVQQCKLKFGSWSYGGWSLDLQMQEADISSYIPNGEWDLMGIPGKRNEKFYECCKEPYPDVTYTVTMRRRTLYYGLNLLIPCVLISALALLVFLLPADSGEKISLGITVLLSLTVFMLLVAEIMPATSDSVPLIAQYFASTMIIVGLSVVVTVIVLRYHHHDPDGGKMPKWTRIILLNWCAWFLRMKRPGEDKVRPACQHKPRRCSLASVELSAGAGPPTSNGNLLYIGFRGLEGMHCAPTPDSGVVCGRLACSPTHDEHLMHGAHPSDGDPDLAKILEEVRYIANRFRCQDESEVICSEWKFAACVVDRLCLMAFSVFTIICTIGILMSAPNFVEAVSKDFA

The molecule `CCCCCOc1cncc(N2CCN(C)CC2)c1` (as salt: fumaric acid salt) gave a melting point of 113.6 to 115.1 °C.
Turning to `C=COc1cc(N2CCCNCC2)cnc1Br` (as salt: fumaric acid salt), the melting point worked out at 128.6 °C.
Turning to `c1ncc(N2CCCNCC2)cc1N1CCC1` (as salt: fumaric acid salt), the melting point lay in the range of 143.5 to 146.9 °C.
On to `c1ncc(N2CCCNCC2)cc1OCC1CCC1` (as salt: fumaric acid salt) [1-[5-(Cyclobutylmethoxy)-3-pyridyl]-homopiperazine], for which the melting point was 158.9 to 159.9 °C.
Molecule `Brc1cc(N2CCCNCC2)cnc1Br` (as salt: fumaric acid salt) [1-(5,6-Dibromo-3-pyridyl)-homopiperazine] showed a melting point of 192.1 to 193.2 °C.
Take `Ic1cncc(N2CCCNCC2)c1` (as salt: fumaric acid salt): the melting point lay within 178 to 180 °C.
`C=CC(C)Oc1cncc(N2CCCNCC2)c1` (stereo not shown) (as salt: fumaric acid salt) [1-[5-(1-Methyl-1-prop-2-en-oxy)-3-pyridyl]-homopiperazine]: the melting point lay in the range of 129.5 to 133.6 °C.
For `C=CCN1CCCN(c2cncc(OCC)c2)CC1` [1-(5-Ethoxy-3-pyridyl)-4-(prop-2-en-1-yl-)-homopiperazine], the 50% inhibitory concentration (IC50) in series [1] was over 30000 nM.
As to `c1ncc(N2CCCNCC2)cc1OCC1CCC1` [1-[5-(Cyclobutylmethoxy)-3-pyridyl]-homopiperazine], the IC50 in series [1] (setting [4]) is over 30000 nM; in series [2], 4 nM.
The molecule `CCOc1cncc(N2CCCN(c3cncc(OCC)c3)CC2)c1` (as salt: fumaric acid salt) came in with a melting point of 155 to 156 °C.
`Clc1cc(N2CCCNCC2)cnc1Br` [1-(6-Bromo-5-chloro-3-pyridyl)-homopiperazine]: the IC50 was under 3000 nM in series [1] (setting [4]) and 2 nM in series [2].
As to `C=COc1cncc(N2CCCN(c3cncc(OC=C)c3)CC2)c1` (as salt: fumaric acid salt), the melting point was 157 to 158.5 °C.
`CCCC=CCOc1cncc(N2CCCNCC2)c1` [1-[5-(Hex-2-en-ox)-3-pyridyl]-homopiperazine]: the half-inhibitory concentration (IC50) stood at 47000 nM in series [1] (setting [4]) and 8 nM in series [2].
On to `Clc1cc(N2CCCNCC2)cnc1Br` (as salt: fumaric acid salt) [1-(6-Bromo-5-chloro-3-pyridyl)-homopiperazine], for which the melting point was in the range of 213 to 216 °C.
The same measure, in the same setting: then `c1ncc(N2CCCNCC2)cc1N1CCCC1` (as salt: fumaric acid salt) [1-[5-(N-pyrrolidinyl)-3-pyridyl]-homopiperazine], with 141.5 to 143 °C.
The molecule `Clc1cncc(N2CCCNCCC2)c1` (as salt: fumaric acid salt) displayed a melting point of 186 to 187 °C.
As to `C(#Cc1cncc(N2CCCNCC2)c1)c1ccccc1` [1-(5-Phenylacetylenyl-3-pyridyl)-homopiperazine], the results for the IC50 in series [1] (setting [4]) and in series [2] were 11000 nM and 5 nM, respectively.
For the molecule `Brc1cc(N2CCCNCC2)cnc1Br` [1-(5,6-Dibromo-3-pyridyl)-homopiperazine], the figures for the IC50 in series [1] (setting [4]) and in series [2] were 3000 nM and 1 nM, respectively.
In turn, `Brc1cncc(N2CCCNCCC2)c1` (as salt: fumaric acid salt) came in with a melting point of 151 to 153 °C.
Turning to `Clc1cc(N2CCCNCC2)cnc1Cl` [1-(5,6-Dichloro-3-pyridyl)-homopiperazine], the IC50 in series [1] (setting [4]) is under 3000 nM; in series [2], 2 nM.
Consider `Clc1cc(N2CCCNCC2)cnc1Cl` (as salt: fumaric acid salt) [1-(5,6-Dichloro-3-pyridyl)-homopiperazine], for which the melting point is 172.2 to 173.4 °C.
Same read-out and setting: for `Brc1ccc(N2CCCNCC2)nn1` (as salt: fumaric acid salt) [1-(6-Bromo-3-pyridazinyl)-homopiperazine] the value was 169 to 171 °C.
As to `CC(C)=COc1cncc(N2CCCNCC2)c1` [1-[5-(2-Methyl-1-prop-1-en-oxy)-3-pridyl]-homopiperazine], the IC50 in series [1] (setting [4]) came to 85000 nM; in series [3], 20 nM.
Regarding `CCCC=CCOc1cncc(N2CCCNCC2)c1` (as salt: fumaric acid salt) [1-[5-(Hex-2-en-ox)-3-pyridyl]-homopiperazine], the melting point lay within 126.8 to 130.2 °C.
As to `CCC(CC)COc1cncc(N2CCCNCC2)c1` [1-[5-(2-Ethyl-1-butoxy)-3-pyridyl]-homopiperazine], the IC50 in series [1] (setting [4]) was over 30000 nM; in series [2], 13 nM.
`CCCCOc1cncc(N2CCCNCCC2)c1` [1-[5-(Butoxy)-3-pyridyl]-1,5-diazacyclooctane] returned an IC50 in series [2] of 3 nM.
For `C(#Cc1cncc(N2CCCNCC2)c1)c1ccccc1` (as salt: fumaric acid salt) [1-(5-Phenylacetylenyl-3-pyridyl)-homopiperazine], the melting point lay in the range of 155.2 to 157.8 °C.
For the molecule `Brc1ccc(N2CCCNCC2)nn1` [1-(6-Bromo-3-pyridazinyl)-homopiperazine], the results for the IC50 in series [1] (setting [4]) and in series [2] were 1500 nM and 70 nM, respectively.
The molecule `CCC(CC)COc1cncc(N2CCCNCC2)c1` (as salt: fumaric acid salt) [1-[5-(2-Ethyl-1-butoxy)-3-pyridyl]-homopiperazine] returned a melting point of 113.7 to 115.9 °C.
In turn, `C=COc1cc(N2CCCNCC2)cnc1Cl` (as salt: fumaric acid salt) had a melting point of 183 to 185 °C.
In the case of `c1ncc(N2CCCNCC2)cc1N1CCCC1` [1-[5-(N-pyrrolidinyl)-3-pyridyl]-homopiperazine], the IC50 in series [1] (setting [4]) was 5000 nM; in series [2], 40 nM.
In the case of `CC1OC1Oc1cncc(N2CCCNCC2)c1` (stereo not shown) [1-[5-(Propyl-1,2-epoxy-1-oxy)-3-pyridyl]-homopiperazine], the melting point fell in the range of 135.2 to 139 °C. In series [1] (setting [4]), the IC50 was determined as 58000 nM. In series [2], this molecule gave an IC50 of 40 nM.
In series [1], `CCOc1cncc(N2CCCN(CC)CC2)c1` [1-(5-Ethoxy-3-pyridyl)-4-ethyl-homopiperazine] yielded a concentration for half-maximal inhibition (IC50) of over 30000 nM.
Molecule `COc1cc(N2CCCNCC2)cnc1Br` (as salt: fumaric acid salt) yielded a melting point of 210 to 212 °C.
Molecule `Clc1ncc(N2CCCNCC2)cc1Br` (as salt: fumaric acid salt) [1-(5-Bromo-6-chloro-3-pyridyl)-homopiperazine] registered a melting point of 188.2 to 189.2 °C.
Turning to `Clc1ncc(N2CCCNCC2)cc1Br` [1-(5-Bromo-6-chloro-3-pyridyl)-homopiperazine], the figures for the IC50 in series [1] (setting [4]) and in series [2] were under 3000 nM and 1 nM, respectively.
Turning to `C=CC(C)Oc1cncc(N2CCCNCC2)c1` (stereo not shown) [1-[5-(1-Methyl-1-prop-2-en-oxy)-3-pyridyl]-homopiperazine], the IC50 in series [1] (setting [4]) was 11000 nM; in series [2], 52 nM.
For `CCCCN(C)c1cncc(N2CCCNCC2)c1` (as salt: fumaric acid salt) [1-[5-(N-Butyl-N-methylamino)-3-pyridyl]homopiperazine], the melting point fell in the range of 140.5 to 141.8 °C.

Usually melting point stands for the temperature of the solid-liquid transition. A word on the IC50: it is the point on the concentration scale where inhibition reaches its midpoint.
